This is an account of results in patent US12312308B2, “Salts and esters of APX3330 and therapeutic uses thereof” (Opus Genetics, Inc., priority 2022, dated 2025).

Molecules are shown by their SMILES. Structures can show the parent of a compound that is named as a salt.

This series can be described thus: Dynamic vapor sorption (DVS) analysis. Type of series: physicochemical.

As to `CCCCCCCCC/C(=C\C1=C(C)C(=O)C(OC)=C(OC)C1=O)C(=O)O` [Compound 1 calcium salt], under “DVS, at 82% RH”, the maximum water adsorption entry is reported as “about 1.52%”. Moreover, the “water retained at the end of the desorption branch” value (DVS, end of desorption branch) is listed as 0.19%. Moreover, the “crystalline form after DVS (subsequent XRPD analysis)” value (post-DVS sample vs pre-DVS sample, XRPD) is recorded as “maintained the same crystalline form”.
